Consider 19 compounds from patent US7153869B2, “Substituted amino acids as erythropoietin mimetics” (priority 1998, dated 2006).

This assay concerns the target T1, EBP-Ig (N-terminal 225 amino acids of the human EPO receptor joined to an Ig heavy chain) (Homo sapiens, UniProt P19235).
T1 construct: Ig heavy chain (fusion partner); made in house; host or cells: NSO cells (secreted into conditioned media)
T1 sequence (P19235 25-250 limits assumed): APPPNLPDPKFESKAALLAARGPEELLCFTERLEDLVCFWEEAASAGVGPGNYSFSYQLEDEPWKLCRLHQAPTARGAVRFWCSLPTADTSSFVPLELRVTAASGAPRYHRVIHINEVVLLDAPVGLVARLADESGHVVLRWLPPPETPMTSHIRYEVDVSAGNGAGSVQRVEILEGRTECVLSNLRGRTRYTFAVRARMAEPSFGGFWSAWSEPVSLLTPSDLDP
Kind of assay: Inhibition of [125I]EPO binding to immobilized EBP-Ig (EPO binding protein-Ig), scintillation Flash plate competition assay. Conditions: for IC30 μM (Inhibition of EPO binding to EBP-Ig) / % inh @ 50 μM (Inhibition of EPO binding to EBP-Ig) / IC50: 0.5 nM [125I]EPO; for IC30 μM (Inhibition of EPO binding to EBP-Ig): 0–500 μM test compound; for % inh @ 50 μM (Inhibition of EPO binding to EBP-Ig): 50 μM test compound, average % inhibition; for IC50: read-out: IC50, μM (Inhibition of EPO binding to EBP-Ig), concentration reducing corrected total binding to 50%.

Take `O=C(O)CC(C(=O)O)N(Cc1cccc(NCc2cccc(Cl)c2)c1)Cc1cccc(Oc2ccccc2)c1` (centres unmarked) [compound 66]: the “EPO/EBP-Ig % inh @ 50 μM” value (Table 4, 50 μM) is recorded as −16%.
With `COC(=O)[C@H](COC(C)(C)C)N(C/C=C/c1cccc(Oc2ccc(C(C)(C)C)cc2)c1)C/C=C/c1cccc(Oc2ccc(C(C)(C)C)cc2)c1` [compound 294], the “EPO/EBP-Ig % inh @ 50 μM” value (50 μM compound, Table 16A) was 9%.
Regarding `COC(=O)[C@H](CCCCNC(=O)OCc1ccccc1)NC/C=C/c1ccc(OC)cc1` [compound 320], the “EPO/EBP-Ig % inh @ 50 μM” value (50 μM compound, Table 18A) is recorded as 17%.
On to `CC(C)(C)OC(=O)NCCCCC(C(=O)NCCCOCCOCCOCCCNC(=O)C(CCCCNC(=O)OC(C)(C)C)N(Cc1ccc(OCc2ccccc2)cc1)Cc1ccc(OCc2ccccc2)cc1)N(Cc1ccc(OCc2ccccc2)cc1)Cc1ccc(OCc2ccccc2)cc1` (centres unmarked) [compound 257], for which the “EPO/EBP-Ig % inh @ 50 μM” value (50 μM compound, Table 13) is given as −26%.
For orientation: IC50 means the concentration at which inhibition is half-maximal. As to `NCCCCC(C(=O)NCCc1ccccc1)N(C/C=C/c1cccc(Oc2ccccc2)c1)C/C=C/c1cccc(Oc2ccccc2)c1` (centres unmarked) [compound 239], the “IC30 μM (Inhibition of EPO binding to EBP-Ig)” value came to 8 µM, the “% inh @ 50 μM (Inhibition of EPO binding to EBP-Ig)” value amounted to 46% and the IC50 came out at 50 µM. Also, the “EPO/EBP-Ig % inh @ 50 μM” value (50 μM compound, Table 10) is 46%.
For the compound `COC(=O)C(CCCCNC(=O)OC(C)(C)C)N(C/C=C/c1cccc([N+](=O)[O-])c1)C/C=C/c1cccc([N+](=O)[O-])c1` (centres unmarked) [compound 183], the “% inh @ 50 μM (Inhibition of EPO binding to EBP-Ig)” value is on record as 36%. Also, the “EPO/EBP-Ig % inh @ 50 μM” value (50 μM compound, Table 9) was 36%.
As to `CCOC(=O)CCC(C(=O)OC)N(C/C=C/c1cccs1)C/C=C/c1cccs1` (centres unmarked) [compound 60], the “EPO/EBP-Ig % inh @ 50 μM” value (Table 3, 50 μM) is on record as 9%.
As for `CC(C)(C)c1ccc(Oc2cccc(/C=C/CN[C@@H](CCC(=O)O)C(=O)O)c2)cc1.O=C(O)C(F)(F)F` [compound 331], the “EPO/EBP-Ig % inh @ 50 μM” value (50 μM compound, Table 19A) is 18%.
For the compound `CC(C)(C)OC(=O)CCC(C(=O)O)N(C/C=C/c1ccc2ccccc2c1)C/C=C/c1ccc2ccccc2c1` (centres unmarked) [compound 97], the “EPO/EBP-Ig % inh @ 50 μM” value (Table 6, 50 μM) stood at 14%.
For the compound `CC(=O)O.COC(=O)[C@H](CO)N(C/C=C/c1ccc(-c2ccccc2)cc1)C/C=C/c1ccc(-c2ccccc2)cc1` [compound 295], the “EPO/EBP-Ig % inh @ 50 μM” value (50 μM compound, Table 16A) came to 10%.
In the case of `CC(C)(CC(=O)O)CC(=O)NCCCCC(C(=O)NCCCCCCCCCCCCNC(=O)C(CCCCNC(=O)CC(C)(C)CC(=O)O)N(Cc1ccc(OCc2ccccc2)cc1)Cc1ccc(OCc2ccccc2)cc1)N(Cc1ccc(OCc2ccccc2)cc1)Cc1ccc(OCc2ccccc2)cc1` (centres unmarked) [compound 268], the “% inh @ 50 μM (Inhibition of EPO binding to EBP-Ig)” value is listed as 40%. Moreover, the “EPO/EBP-Ig % inh @ 50 μM” value (50 μM compound, Table 13) is on record as 40%.
Consider `CC(C)(C)OC(=O)CC(C(=O)NCCCCCCCCCCNC(=O)C(CC(=O)OC(C)(C)C)N(C/C=C/c1cccc(Oc2ccc(C(C)(C)C)cc2)c1)C/C=C/c1cccc(Oc2ccc(C(C)(C)C)cc2)c1)N(C/C=C/c1cccc(Oc2ccc(C(C)(C)C)cc2)c1)C/C=C/c1cccc(Oc2ccc(C(C)(C)C)cc2)c1` (centres unmarked) [compound 254], for which the “EPO/EBP-Ig % inh @ 50 μM” value (50 μM compound, Table 12) is given as −9%.
Turning to `CC(C)(CC(=O)O)CC(=O)NCCCCC(C(=O)NCCCOCCCCOCCCNC(=O)C(CCCCNC(=O)CC(C)(C)CC(=O)O)N(Cc1ccc(OCc2ccccc2)cc1)Cc1ccc(OCc2ccccc2)cc1)N(Cc1ccc(OCc2ccccc2)cc1)Cc1ccc(OCc2ccccc2)cc1` (centres unmarked) [compound 267], the “IC30 μM (Inhibition of EPO binding to EBP-Ig)” value came out at 2 µM, the “% inh @ 50 μM (Inhibition of EPO binding to EBP-Ig)” value is given as 83% and the IC50 turned out to be 6 µM. For the same compound, the “EPO/EBP-Ig % inh @ 50 μM” value (50 μM compound, Table 13) is reported as 83%.
Consider `COC(=O)C(CCCCN)N(Cc1ccc(OCc2ccccc2)cc1)Cc1cccc(NC(=O)c2ccncc2)c1` (centres unmarked) [compound 120], for which the “% inh @ 50 μM (Inhibition of EPO binding to EBP-Ig)” value is recorded as 35%. The “EPO/EBP-Ig % inh @ 50 μM” value (Table 7, 50 μM) came to 35%.
For `CC(C)[C@H](NC/C=C/c1ccc(C(F)(F)F)cc1)C(=O)O.O=C(O)C(F)(F)F` [compound 370], under “50 μM compound”, the “EPO/EBP-Ig % inh @ 50 μM” value was 0%.
Turning to `CC(C)(C)OC[C@@H](C(=O)O)N(C/C=C/c1cccc(Oc2ccc(Cl)c(Cl)c2)c1)C/C=C/c1cccc(Oc2ccc(Cl)c(Cl)c2)c1` [compound 302], the “EPO/EBP-Ig % inh @ 50 μM” value (50 μM compound, Table 16A) turned out to be 30%.
For the compound `O=C(O)CCCC(=O)NCCCCC(C(=O)NCCCOCCOCCOCCCNC(=O)C(CCCCNC(=O)CCCC(=O)O)N(Cc1ccc(OCc2ccccc2)cc1)Cc1ccc(OCc2ccccc2)cc1)N(Cc1ccc(OCc2ccccc2)cc1)Cc1ccc(OCc2ccccc2)cc1` (centres unmarked) [compound 272], the “IC30 μM (Inhibition of EPO binding to EBP-Ig)” value is 5 µM and the IC50 was 10 µM.
`O=C(O)CCC(NCC=Cc1cccc(Oc2ccccc2)c1)C(=O)O` (centres unmarked) [cpd 326, N-(3-Phenoxycinnamyl)Glu-OH]: where the note is “50 μM compound, Table 19A”, the “EPO/EBP-Ig % inh @ 50 μM” value turned out to be 0%.
For `COC(=O)C(CCC(=O)OC(C)(C)C)N(C/C=C/c1ccccc1)C/C=C/c1ccccc1` (centres unmarked) [compound 93], the “EPO/EBP-Ig % inh @ 50 μM” value (Table 6, 50 μM) was 20%.
